Reference: US9051351B2, “Hepatocyte growth factor mimics as therapeutic agents” (Washington State University, priority 2011, dated 2015)
Entries after “also recorded” stand apart in the source; their conditions may differ. Where a SMILES comes first, the peptide text is derived from it. [ ]: non-standard residue; d: D form. The star is where a group is joined. Hexanoyl = CCCCCC(=O)*; Ahx = NCCCCCC(=O)O

Tests used:
6-OHDA lesioned rats = test: 6-OHDA lesioned rat: rope hang, gait analysis, histology; type: in vivo
Experimental: Three groups of rats (8 animals per group) were utilized. The first two groups were prepared with unilateral 6-OHDA lesions and members of the first group was treated with MM-201 in DMSO 100 μl:PBS 8 ml ([…]) Members of Group 2 were treated with sterile DMSO 100 μl:PBS 8 ml equivalent volumes to the weights. Members of Group 3 had only a sham surgery and served as the non-treated controls. These three groups of animals were tested on behavioral tasks the day prior to surgery and on 13 days following surgery. The tasks included rope hang, and gait analysis.
The rope hang test involved the placement of the forepaws on a hemp rope (1.0 cm in dia.) located 1 m above a basket of towels. Hang time was recorded beginning when the experimenter let go of the animal. This test was repeated 3 times/animal/test (5 minutes rest between each test) every other day.
Step gait analyses were conducted in a dark room painted black under red light. The bottoms of each rat's feet were painted with black ink (Parker Quink) and the rat was placed in a Plexiglas straight maze (length×width×height: 116×7.6×10 cm). The maze was slightly elevated at one end such that the animal's tendency was to walk up hill. White paper strips placed on the floor of the maze were used to collect the gait patterns. These ink tracks were analyzed for stride length (distance between the mid point of the fore paw and hind paw comparing left and right strides).

hippocampal neurons = test: Immunocytochemistry: percent correlation of spines to synaptic markers; type: cell-based, rat; conditions: 10^−12 M, 5 days
Experimental: (§1) Transfected neurons were treated, fixed and stained. Briefly, cells were permeablized with 0.1% Triton X-100 detergent (Bio-Rad; Hercules, Calif.) for 10 minutes. An 8% bovine serum albumin (Intergen Company; Burlington, Mass.) in PBS was used to prevent non-specific binding for one hour at R.T.; Primary antibody incubations were at a 1:2500 dilution (see below) in 1% BSA in PBS at 4° C. overnight. Secondary antibody, 1:3000 Alexafluor 488 goat-anti-mouse (Invitrogen: Carlsbad, Calif.) was applied for two hours at room temperature. Coverslips were mounted with ProLong Gold anti-fade reagent (Invitrogen; Carlsbad, Calif.) and all washes were done with PBS. Imaging and analysis were performed as described above. For presynaptic excitatory transmission the VGLUT1 (Synaptic Systems, Goettingen, Germany) marker (Balschun, Moechars et al.) was employed and for general presynaptic transmission synapsin1 (Synaptic Systems, Goettingen, Germany) (Ferreira and Rapoport 2002) was applied. A postsynaptic function was established by PSD-95 (Milipore, Billerica, Mass.) (El-Husseini, Schnell et al. 2000). In each instance the total number of spines was counted for the treatment groups, control, Nle1-AngIV and Dihexa, to ensure an active phenotype. The total number of actin enriched spines adjacent to VGLUT1 or Synapsin were counted and converted to a percentage as the percent correlation of treatment-induced spines to presynaptic markers is a strong indicator of ability to transmit excitatory signals.
as §1, with “fixed and stained as previously described in Chapter two. Briefly, cells” for “fixed and stained. Briefly, cells”, “enriched spines (red) adjacent to” for “enriched spines adjacent to”
Transfected neurons were treated and fixed as described above. Following fixation, cells were rinsed in PBS and permeabilized with 0.1% Triton® X-100 detergent (Bin-Rad; Hercules, Calif.), followed by two rinses in PBS and blocked with 8% bovine serum albumin (Intergen Company; Burlington, Mass.) in PBS for 1 h. […]

In the case of `CCCCCC(=O)N[C@@H](Cc1ccc(O)cc1)C(=O)N[C@H](C(=O)NCCCCCC(N)=O)[C@@H](C)CC` [Dihexa, N-hexanoic-Tyr-Ile-(6)-aminohexanoic amide] (Hexanoyl-Tyr-Ile-[Ahx]-NH2), the “performance in the rope hang test” value (6-OHDA lesioned rats; 0.5 mg/kg ip, started 2 weeks after 6-OHDA lesion) is reported as “completely restores performance in the rope hang test; also recorded: completely restored the performance”, the “motor deficits in the 6-OHDA rat” value (6-OHDA lesioned rats; 2 mg/kg by oral gavage/48 hrs) is reported as “reverses motor deficits” and the gait analysis (6-OHDA lesioned rats; 6-OHDA lesioned rats) is reported as “confirmed the recovery of normal motor function”. For the same molecule, the overt toxicity (6-OHDA lesioned rats; 96 day studies) was “no overt toxicity was noted”, the “tyrosine hydroxylase (TH) staining in the substantia nigra” value (6-OHDA lesioned rats; six weeks of ip Dihexa treatment) was “dramatic restoration of tyrosine hydroxylase (TH) staining” and the “recovery of SN TH staining” value (6-OHDA lesioned rats; three months of Dihexa treatment) was about 100%. For the same molecule, the “percent correlation of treatment-induced spines to VGLUT1, Synapsin or PSD-95 vs control” value (hippocampal neurons) was “did not differ from control treated neurons in the percent correlation”, the “Number of spines/50 μm” value (hippocampal neurons; PSD-95 study) was 43 spines/50 μm and the “Number of spines/50 μm” value (hippocampal neurons; Synapsin study) was 37 spines/50 μm. For the same molecule, the “Number of spines/50 μm” value (hippocampal neurons; VGLUT1 study) was 44 spines/50 μm.
